PubChem BioAssay AID212 (DTP/NCI, 2004)
Where “and” joins values, the source holds several entries; their conditions need not be identical. Identical values can stand only once. Results filed as inconclusive are left out.

System: BDF1 mice, colon carcinoma 38 sc, T/C %
Assay: NCI In Vivo Anticancer Drug Screen. Data for tumor model Colon Carcinoma 38 (subcutaneous) in B6D2F1 (BDF1) mice
Conditions: higher = larger tumour
In short: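 T/C readout: treated group (T) measurement over vehicle control group (C) measurement. Endpoint is survival or tumor size in mice bearing a transplanted tumor.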

[1] = endpoint: median tumor weight (est.), dose: 50.0 mg/kg/injection, schedule: Q07DX002 (ip), vehicle: Klucel (hydroxypropylcellulose) (HPC)
[2] = endpoint: median tumor weight (est.), dose: 100.0 mg/kg/injection, schedule: Q07DX002 (ip), vehicle: Klucel (hydroxypropylcellulose) (HPC)
[3] = endpoint: median tumor weight (est.), dose: 200.0 mg/kg/injection, schedule: Q07DX002 (ip), vehicle: Klucel (hydroxypropylcellulose) (HPC)
[4] = endpoint: median tumor weight (est.), dose: 400.0 mg/kg/injection, schedule: Q07DX002 (ip), vehicle: Klucel (hydroxypropylcellulose) (HPC)
[5] = endpoint: median tumor weight (est.), dose: 800.0 mg/kg/injection, schedule: Q07DX002 (ip), vehicle: Klucel (hydroxypropylcellulose) (HPC)
[6] = endpoint: median tumor weight (est.), dose: 100.0 mg/kg/injection, schedule: Q07DX002 (ip), vehicle: saline
[7] = endpoint: median tumor weight (est.), dose: 12.5 mg/kg/injection, schedule: Q07DX002 (ip), vehicle: saline with Tween-80
[8] = endpoint: median tumor weight (est.), dose: 25.0 mg/kg/injection, schedule: Q07DX002 (ip), vehicle: saline with Tween-80
[9] = endpoint: median tumor weight (est.), dose: 100.0 mg/kg/injection, schedule: Q07DX002 (ip), vehicle: saline with Tween-80
[10] = endpoint: median tumor weight (est.), dose: 200.0 mg/kg/injection, schedule: Q07DX002 (ip), vehicle: saline with Tween-80

SMILES: ClCCN(CCCl)c1ccc(/C=C/c2ccccc2)cc1
- T/C [1]: 71 % of control
- T/C [2]: 116 % of control
- T/C [3]: 72 % of control
- T/C [4]: 71 % of control
- T/C [5]: 79 % of control

SMILES: CC(Cc1ccc(O)c(O)c1)C(C)Cc1ccc(O)c(O)c1 (stereo not given)
- T/C (endpoint: median tumor weight (est.), dose: 25.0 mg/kg/injection, schedule: Q07DX002 (ip), vehicle: saline): 100 % of control
- T/C (endpoint: median tumor weight (est.), dose: 50.0 mg/kg/injection, schedule: Q07DX002 (ip), vehicle: saline): 83 % of control
- T/C [6]: 94 % of control
- T/C (endpoint: median tumor weight (est.), dose: 800.0 mg/kg/injection, schedule: Q07DX002 (ip), vehicle: saline): 90 % of control

SMILES: CCN(CC)CCC(=O)c1ccccc1
- T/C (endpoint: median tumor weight (est.), dose: 6.25 mg/kg/injection, schedule: Q07DX002 (ip), vehicle: saline): 85 % of control
- T/C (endpoint: median tumor weight (est.), dose: 12.5 mg/kg/injection, schedule: Q07DX002 (ip), vehicle: saline): 118 % of control and 108 % of control
- T/C (endpoint: median tumor weight (est.), dose: 12.5 mg/kg/injection, schedule: Q07DX002 (ip), vehicle: suspension in saline): 122 % of control
- T/C (endpoint: median tumor weight (est.), dose: 25.0 mg/kg/injection, schedule: Q07DX002 (ip), vehicle: suspension in saline): 80 % of control
- T/C (endpoint: median tumor weight (est.), dose: 50.0 mg/kg/injection, schedule: Q07DX002 (ip), vehicle: suspension in saline): 85 % of control
- T/C [6]: 108 % of control

SMILES: COC1CC(NC(=O)N(CCCl)N=O)C(O)C(CO)O1 (stereo not given)
- T/C (endpoint: median tumor weight change, dose: 10.0 mg/kg/injection, schedule: Q04DX003 (oral), vehicle: saline): 5 % of control

SMILES: CC1(c2ccc(Cl)cc2)OC(=O)C(=Cc2ccc([N+](=O)[O-])s2)C(=O)O1 (stereo not given)
- T/C [7]: 77 % of control
- T/C [8]: 63 % of control
- T/C (endpoint: median tumor weight (est.), dose: 50.0 mg/kg/injection, schedule: Q07DX002 (ip), vehicle: saline with Tween-80): 101 % of control
- T/C [9]: 100 % of control
- T/C [10]: 79 % of control

SMILES: CCOC(=O)Nc1cc2c(c(N)n1)N=C(CN(C)c1ccccc1)CN2
- T/C (endpoint: median tumor weight (est.), dose: 25.0 mg/kg/injection, schedule: Q07DX002 (ip), vehicle: Klucel (hydroxypropylcellulose) (HPC)): 88 % of control
- T/C [1]: 63 % of control and 68 % of control

SMILES: c1ccc2sc(SSN3CC4CCC(CC4)C3)nc2c1
- T/C [7]: 110 % of control and 85 % of control
- T/C [8]: 82 % of control and 93 % of control
- T/C [9]: 63 % of control and 64 % of control
- T/C [10]: 113 % of control and 115 % of control

SMILES: Brc1ccc(C[N+]23CN4CN(CN(C4)C2)C3)cc1
- T/C (endpoint: median tumor weight (est.), dose: 12.5 mg/kg/injection, schedule: Q07DX003 (ip), vehicle: saline with Tween-80): 121 % of control
- T/C (endpoint: median tumor weight (est.), dose: 25.0 mg/kg/injection, schedule: Q07DX003 (ip), vehicle: saline with Tween-80): 79 % of control
- T/C (endpoint: median tumor weight (est.), dose: 50.0 mg/kg/injection, schedule: Q07DX003 (ip), vehicle: saline with Tween-80): 108 % of control
- T/C (endpoint: median tumor weight (est.), dose: 100.0 mg/kg/injection, schedule: Q07DX003 (ip), vehicle: saline with Tween-80): 95 % of control
- T/C (endpoint: median tumor weight (est.), dose: 200.0 mg/kg/injection, schedule: Q07DX003 (ip), vehicle: saline with Tween-80): 62 % of control

SMILES: CN(C)C(=O)SC1=C(c2c(Cl)cccc2Cl)C(=O)c2ccccc21
- T/C [1]: 76 % of control
- T/C [2]: 94 % of control
- T/C [3]: 86 % of control
- T/C [4]: 82 % of control
- T/C [5]: 91 % of control

SMILES: CCOC(=O)C(N)CSC(=O)NC (stereo not given)
- T/C (endpoint: median tumor weight (est.), dose: 125.0 mg/kg/injection, schedule: Q07DX002 (ip), vehicle: saline): 83 % of control
- T/C (endpoint: median tumor weight (est.), dose: 250.0 mg/kg/injection, schedule: Q07DX002 (ip), vehicle: saline): 110 % of control
- T/C (endpoint: median tumor weight (est.), dose: 500.0 mg/kg/injection, schedule: Q07DX002 (ip), vehicle: saline): 81 % of control

SMILES: BrC1c2cccc3cccc(c23)C1Br (stereo not given)
- T/C [7]: 103 % of control
- T/C [8]: 117 % of control and 120 % of control
- T/C [9]: 97 % of control and 107 % of control
- T/C [10]: 108 % of control and 111 % of control
- T/C (endpoint: median tumor weight (est.), dose: 400.0 mg/kg/injection, schedule: Q07DX002 (ip), vehicle: saline with Tween-80): 85 % of control

SMILES: CN(C)S(=O)(=O)CCNC(=O)N(CCCl)N=O
- T/C (endpoint: median tumor weight (est.), dose: 5.4 mg/kg/injection, schedule: Q07DX002 (oral), vehicle: saline): 108 % of control
- T/C (endpoint: median tumor weight (est.), dose: 7.5 mg/kg/injection, schedule: Q07DX002 (oral), vehicle: saline with Tween-80): 65 % of control
- T/C (endpoint: median tumor weight (est.), dose: 9.0 mg/kg/injection, schedule: Q07DX002 (oral), vehicle: saline): 106 % of control
- T/C (endpoint: median tumor weight (est.), dose: 15.0 mg/kg/injection, schedule: Q07DX002 (oral), vehicle: saline): 94 % of control
- T/C (endpoint: median tumor weight (est.), dose: 25.0 mg/kg/injection, schedule: Q07DX002 (oral), vehicle: saline): 18 % of control
